In patent publication US11579141B2, “Methods for identifying a non-healing skin wound and for monitoring the healing of a skin wound” (AKRIBES BIOMEDICAL GMBH, priority 2016, dated 2023):

Assays:
[1] = test system: primary human dermal fibroblasts (HDF); test: Primary human dermal fibroblast (HDF) proliferation assay (2D), SRB staining; format: cell-based
Description: Primary human dermal fibroblasts (HDF) were purchased from CELLnTEC, Bern. They were routinely grown in Dulbecco's modified Eagle's medium (DMEM) containing 10% FCS, 2 mM glutamine, and 100 U/ml penicillin/100 μg/ml streptomycin. Media, antibiotics, and glutamine were bought from Lonza. The cells were used at passage 10. Cells were trypsinized and seeded at 5000 cells/well in 200 μl into the inner wells of 96-well plates. The outer wells were loaded with sterile water. The cells were allowed to adhere overnight and then incubated for 72 hours at 37° C. under the following conditions: graded compound concentrations or 20 ng/ml PDGF-BB (Tonbo Biosciences # TO-21-8501-U010) in the absence or presence of different dilutions of sterile-filtered WE in medium. For negative control samples, 200 μl medium was added instead of specific stimuli. Alternatively, the cells were seeded into 384-well plates at 2500 cells/well together with test compounds or growth factors and WE or medium in a total volume of 50 μl. […]
Total cellular protein was determined as a measure of cell number by staining the fixed cells with sulforhodamine B (SRB, Sigma). […] After drying, the dye was eluted with 10 mM Tris.HCl, pH8.5, and absorbance was measured either at 550 or 492 nm for lower and higher cell densities, respectively. The average absorbance of the sample representing the day 1 starting cell number (for 96-well plates) was subtracted from the absorbance values of the WE-treated cells.
All experiments were carried out in triplicate for each sample and concentration, and means±standard deviation (SD) were used for the evaluation of the experiment. Results are expressed as percentage of control values for unstimulated cells.
For screening with WE, compound results were calculated as % proliferation of untreated and unstimulated control (=100%), and the cut-off for a positive hit was defined as % average proliferationWE+3*standard deviation, as shown in FIG. 5.

[2] = test system: chronic wounds; details: non-steroidal anti-inflammatory drug; cited from earlier work

CNC(=O)[C@H](Cc1c[nH]c2ccccc12)NC(=O)[C@@H](CC(=O)NO)CC(C)C [GM6001]
effect on the effect of wound exudate on HDF proliferation ([1]; in presence of WE #49 (highest MMP activity), FIG. 22): partially reverses | effect on HDF proliferation ([1]; medium or WE without MMP activity, FIG. 22): no effect

CC(C)Cc1ccc(C(C)C(=O)O)cc1 (stereo not shown) [ibuprofen]
effectiveness in wounds [2]: only effective in ameliorating wound pain

PDGF
effect on the growth inhibitory effect of wound exudate in 2D fibroblast proliferation ([1]; in presence of aggressive, non-healing WE #49, FIG. 21): only partially reverses
